Like-named read-outs stand apart in the source and are kept apart here.
Molecular target: T1, human B-Raf (Homo sapiens, UniProt P15056)
T1 construct: Flag; GST; made in house; host or cells: Sf9 insect cells (B-Raf); E. coli (MEK1-GST)
Experiment: B-Raf Kinase to MEK1 ELISA
Assay type: biochemical
Conditions: for IC50: median, cpd concentrations from 10 μM to 30 nM in half log dilutions, read-out: Median IC50; for inhibition at 10 µM: read-out: % Inhib./10 uM
From the text: TITLE: B-Raf Kinase to MEK1 ELISA
PURPOSE: To discover B-Raf Kinase inhibitors that can inhibit growth of tumor cells which contain oncogenic forms of Receptor Tyrosine Kinases or K-Ras, or B-Raf kinase.
Reagents: Flag/GST-tagged recombinant human B-Raf produced in Sf9 insect cells, human non-active Mek-1-GST (recombinant protein produced in E. coli); and a phospho-MEK1 specific poly-clonal Ab from Cell Signaling Technology (cat. #9121).
B-Raf1 Kinase Assay Procedure:
B-Raf-1 is used to phosphorylate GST-MEK1. MEK1 phosphorylation is measured by a phospho-specific antibody (from Cell Signaling Technology, cat. #9121) that detects phosphorylation of two serine residues at positions 217 and 221 on MEK1.
B-Raf Assay Stock Solutions:
1. Assay Dilution Buffer (ADB): 20 mM MOPS, pH 7.2, 25 mM β-glycerol phosphate, 5 mM EGTA, 1 mM sodium orthovanadate, 1 mM dithiothreitol.
2. Magnesium/ATP Cocktail: 200 μM cold ATP and 40 mM magnesium chloride in ADB.
3. Active Kinase: Active B-Raf: used at ˜20 ng per assay point.
4. Non-active GST-MEK1: Use at 100 nM (50 nM final).
6. Anti-GST Ab (Pharmacia)
7. Anti-rabbit Ab/Europium conjugate (Wallac)
1. Add 25 μl of ADB containing B-Raf and Mek per assay (i.e. per well of a 96 well plate)
2. Add 25 μl of 0.2 mM ATP and 40 mM magnesium chloride in ADB.
3. Incubate for 60 minutes at RT in a shaking incubator.
4. Transfer this mixture to an anti-GST Ab coated 96 well plate (Nunc Immunosorb plates coated o/n with a-GST.
5. Incubate for 60 minutes at 30° C. in a shaking incubator
6. Wash 3× with TBST, add Anti-Phospho MEK1 (1:1000)
7. Incubate for 60 minutes at 30° C. in a shaking incubator
8. Wash 3× with TBST, add Anti-rabbit Ab/Europium conjugate (Wallac) (1:500)
9. Incubate for 60 minutes at 30° C. in a shaking incubator
10. Add 100 ul of Wallac Delfia Enhancement Solution and shake for 10 minutes.
11. Read plates in Wallac Victor model Plate Reader.
12. Collect data analyze in Excel for single point and IC50 determinations.
Typically Raf-1 assay is run at cpd concentrations from 10 μM to 30 nM in half log dilutions. (% inhibition is determined for each cpd concentration)

T1 sequence (P15056 whole entry): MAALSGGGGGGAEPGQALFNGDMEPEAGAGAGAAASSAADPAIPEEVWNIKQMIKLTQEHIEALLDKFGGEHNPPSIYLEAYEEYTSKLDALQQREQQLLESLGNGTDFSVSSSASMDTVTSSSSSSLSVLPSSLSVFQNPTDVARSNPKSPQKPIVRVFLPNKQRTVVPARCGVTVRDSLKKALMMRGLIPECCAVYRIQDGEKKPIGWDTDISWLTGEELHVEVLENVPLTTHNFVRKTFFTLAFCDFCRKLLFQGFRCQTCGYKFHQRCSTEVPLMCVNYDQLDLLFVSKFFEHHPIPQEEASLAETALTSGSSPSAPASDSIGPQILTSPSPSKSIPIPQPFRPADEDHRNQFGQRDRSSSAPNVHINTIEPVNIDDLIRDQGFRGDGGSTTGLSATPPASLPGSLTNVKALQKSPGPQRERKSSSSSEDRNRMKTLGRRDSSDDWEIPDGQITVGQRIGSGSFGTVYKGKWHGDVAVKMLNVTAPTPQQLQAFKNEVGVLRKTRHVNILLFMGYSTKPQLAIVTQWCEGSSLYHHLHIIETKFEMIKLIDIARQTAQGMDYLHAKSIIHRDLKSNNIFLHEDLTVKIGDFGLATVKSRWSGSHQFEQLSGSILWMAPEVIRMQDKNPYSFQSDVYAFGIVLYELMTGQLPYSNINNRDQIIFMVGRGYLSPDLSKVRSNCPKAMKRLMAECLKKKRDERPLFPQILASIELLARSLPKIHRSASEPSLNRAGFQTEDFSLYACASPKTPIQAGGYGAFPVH

IC50 [µM]	inhibition at 10 µM [%]	inhibition at 10 µM (single point assay, 10 uM) [%]	Structure (SMILES)
> 10	19	–	CCOC(=O)c1cnn2c(-c3cccc(NC(=O)c4cc(C(F)(F)F)cc(Cl)c4F)c3)ccnc12 [Example 28, ethyl 7-(3-{[3-chloro-2-fluoro-5-(trifluoromethyl)benzoyl]amino}phenyl)pyrazolo[1,5-a]pyrimidine-3-carboxylate]
> 10	0	–	CCOC(=O)c1cnn2c(-c3cccc(NC(=O)c4cc(F)c(Cl)cc4F)c3)ccnc12 [Example 29, ethyl 7-{3-[(4-chloro-2,5-difluorobenzoyl)amino]phenyl}pyrazolo[1,5-a]pyrimidine-3-carboxylate]
> 10	29	–	O=C(Nc1cccc(-c2ccnc3c(C(=O)O)cnn23)c1)c1cccc(C(F)(F)F)c1 [Example 32, 7-(3-{[3-(trifluoromethyl)benzoyl]amino}phenyl)pyrazolo[1,5-a]pyrimidine-3-carboxylic acid]
0.68	80	–	CCOC(=O)c1cnn2c(-c3cccc(NC(=O)Nc4cccc(C(F)(F)F)c4)c3)ccnc12 [Example 33, ethyl 7-{3-[({[3-(trifluoromethyl)phenyl]amino}carbonyl)amino]phenyl}pyrazolo[1,5-a]pyrimidine-3-carboxylate]
> 10	37	–	CCOC(=O)c1cnn2c(-c3cccc(NC(=O)Nc4ccc(Cl)cc4)c3)ccnc12 [Example 34, ethyl 7-[3-({[(4-chlorophenyl)amino]carbonyl}amino)phenyl]pyrazolo[1,5-a]pyrimidine-3-carboxylate]
3.1	71	–	CCOC(=O)c1cnn2c(-c3cccc(NC(=O)Nc4ccc(C(F)(F)F)cc4)c3)ccnc12 [Example 35, ethyl 7-{3-[({[4-(trifluoromethyl)phenyl]amino}carbonyl)amino]phenyl}pyrazolo[1,5-a]pyrimidine-3-carboxylate]

Further lines, the compound ahead of its results:

Structure (SMILES)	IC50 [µM]	inhibition at 10 µM [%]	inhibition at 10 µM (single point assay, 10 uM) [%]
CCOC(=O)c1cnn2c(-c3cccc(NC(=O)c4ccc(OC)c(C(F)(F)F)c4)c3)ccnc12 [Example 30, ethyl 7-(3-{[4-methoxy-3-(trifluoromethyl)benzoyl]amino}phenyl)pyrazolo[1,5-a]pyrimidine-3-carboxylate]	1.3	75	–
CNC(=O)c1cnn2c(-c3cccc(NC(=O)c4cccc(C(F)(F)F)c4)c3)ccnc12 [Example 31, N-methyl-7-(3-{[3-(trifluoromethyl)benzoyl]amino}phenyl)-pyrazolo[1,5-a]pyrimidine-3-carboxamide]	> 10	48	–
CCOC(=O)c1cnn2c(-c3cccc(NC(=O)Nc4ccc(Cl)cc4C)c3)ccnc12 [Example 36, ethyl 7-[3-({[(4-chloro-2-methylphenyl)amino]carbonyl}amino)phenyl]pyrazolo[1,5-a]pyrimidine-3-carboxylate]	> 10	33	–
CCOC(=O)c1cnn2c(-c3cccc(NC(=O)Nc4cc(C(F)(F)F)ccc4Cl)c3)ccnc12 [Example 37, ethyl 7-{3-[({[2-chloro-5-(trifluoromethyl)phenyl]amino}carbonyl)amino]phenyl}pyrazolo[1,5-a]pyrimidine-3-carboxylate]	6.82	76	–
CCOC(=O)c1cnn2c(-c3cccc(NC(=O)Nc4ccc(C#N)cc4)c3)ccnc12 [Example 38, ethyl 7-[3-({[(4-cyanophenyl)amino]carbonyl}amino)phenyl]pyrazolo[1,5-a]pyrimidine-3-carboxylate]	> 10	20	–
CCOC(=O)c1cnn2c(-c3cccc(NC(=O)Nc4ccccc4C(F)(F)F)c3)ccnc12 [Example 39, ethyl 7-{3-[({[2-(trifluoromethyl)phenyl]amino}carbonyl)amino]phenyl}pyrazolo[1,5-a]pyrimidine-3-carboxylate]	> 10	–	14
